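These data come from cells grown in 96-well plates and exposed to compound for 48 hours at five concentrations. GI50 is the concentration that inhibits growth by half.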 Active and inactive are the calls of the source. Cut-off read from the data, not from the text of the source: active = GI50 up to about 1.1 µM and inactive = higher.
Legend:
Experiment in all cases: NCI-60 cell line screen, 48 h
MDA-MB-231 = system: MDA-MB-231
SF-539 = system: SF-539
IGROV-1 = system: IGROV-1
MCF7 = system: MCF7
Malme-3M = system: Malme-3M
786-0 = system: 786-0
HCC 2998 = system: HCC 2998
SK-MEL-28 = system: SK-MEL-28
HT-29 = system: HT-29
SW-620 = system: SW-620
OVCAR-5 = system: OVCAR-5
HCT-116 = system: HCT-116
DU-145 = system: DU-145
KM12 = system: KM12
M14 = system: M14
ACHN = system: ACHN
PC-3 = system: PC-3
SR = system: SR
RXF 393 = system: RXF 393
CCRF-CEM = system: CCRF-CEM

Measured: GI50

Cc1ccc(OC2CC(n3cnc4ncnc(Cl)c43)OC2Oc2ccc(C)cc2)cc1 (configuration not stated)
inactive: MDA-MB-231 17.5 µM | SF-539 7.78 µM | IGROV-1 17 µM | MCF7 5.96 µM | Malme-3M 40.5 µM | 786-0 > 100 µM | HCC 2998 8.04 µM | SK-MEL-28 > 100 µM | HT-29 16.9 µM | SW-620 48.5 µM | OVCAR-5 22 µM | HCT-116 9.77 µM | DU-145 15.7 µM | KM12 18.4 µM | M14 18.1 µM | ACHN 2.59 µM | PC-3 16.4 µM | SR 2.48 µM

COC(=O)C(=O)C(C(=O)C(=O)Nc1ccc(C)cc1C)c1nc2ccc(Cl)cc2nc1O (configuration not stated)
inactive: MDA-MB-231 > 100 µM | SF-539 > 100 µM | IGROV-1 > 100 µM | MCF7 > 100 µM | 786-0 > 100 µM | HCC 2998 > 100 µM | SK-MEL-28 > 100 µM | HT-29 > 100 µM | SW-620 > 100 µM | OVCAR-5 > 100 µM | HCT-116 > 100 µM | DU-145 > 100 µM | KM12 > 100 µM | M14 > 100 µM | RXF 393 > 100 µM | ACHN > 100 µM | PC-3 > 100 µM | CCRF-CEM > 100 µM

COc1ccc(CCN2CCc3c(C)c(C#N)c4nc5ccccc5n4c32)cc1OC
inactive: MDA-MB-231 19.1 µM | SF-539 49.9 µM | IGROV-1 37.2 µM | MCF7 18 µM | Malme-3M 28.7 µM | 786-0 56.8 µM | HCC 2998 40.7 µM | SK-MEL-28 39.5 µM | HT-29 32.6 µM | SW-620 26.6 µM | OVCAR-5 > 100 µM | HCT-116 28.7 µM | DU-145 81.7 µM | M14 > 100 µM | RXF 393 30.8 µM | ACHN 64.6 µM | PC-3 25.9 µM | CCRF-CEM 35.4 µM

COc1ccc(/C=N/n2c(=O)[nH]c3ccccc3c2=O)cc1
inactive: MDA-MB-231 > 100 µM | SF-539 > 100 µM | IGROV-1 > 100 µM | MCF7 > 100 µM | 786-0 > 100 µM | SK-MEL-28 > 100 µM | HT-29 > 100 µM | SW-620 > 100 µM | OVCAR-5 > 100 µM | HCT-116 > 100 µM | DU-145 > 100 µM | KM12 > 100 µM | M14 > 100 µM | ACHN > 100 µM | PC-3 > 100 µM | CCRF-CEM > 100 µM | SR > 100 µM

COc1ccc(C2SC(=N)Nc3c2c(C)nn3C(=O)c2ccncc2)cc1 (configuration not stated)
inactive: MDA-MB-231 > 100 µM | SF-539 > 100 µM | IGROV-1 89.5 µM | MCF7 75.2 µM | Malme-3M > 100 µM | 786-0 > 100 µM | SK-MEL-28 > 100 µM | HT-29 > 100 µM | SW-620 > 100 µM | OVCAR-5 > 100 µM | HCT-116 > 100 µM | DU-145 > 100 µM | KM12 > 100 µM | M14 > 100 µM | RXF 393 > 100 µM | ACHN > 100 µM | PC-3 > 100 µM | CCRF-CEM 29.4 µM | SR 21.2 µM

NN/C(=N\S(=O)(=O)c1cc(S(=O)(=O)c2ccccc2)cs1)Nc1ccc(Cl)cc1
inactive: MDA-MB-231 27.4 µM | SF-539 42.7 µM | IGROV-1 25.9 µM | MCF7 32.4 µM | 786-0 35.2 µM | SK-MEL-28 35.2 µM | HT-29 36.1 µM | SW-620 47.5 µM | OVCAR-5 66.2 µM | HCT-116 20.9 µM | DU-145 26.1 µM | KM12 26.1 µM | M14 22 µM | RXF 393 14.9 µM | ACHN 27.5 µM | PC-3 23.3 µM | CCRF-CEM 13.5 µM | SR 9.71 µM

O=C(/N=C1/NCC(CN2CCN(c3ccccc3)CC2)O1)Nc1ccccc1 (configuration not stated)
inactive: MDA-MB-231 > 100 µM | IGROV-1 > 100 µM | MCF7 > 100 µM | Malme-3M > 100 µM | 786-0 > 100 µM | HCC 2998 > 100 µM | SK-MEL-28 > 100 µM | HT-29 63.8 µM | SW-620 > 100 µM | OVCAR-5 > 100 µM | HCT-116 > 100 µM | DU-145 > 100 µM | KM12 > 100 µM | M14 > 100 µM | RXF 393 > 100 µM | ACHN > 100 µM | PC-3 > 100 µM | CCRF-CEM > 100 µM | SR > 100 µM
